Assay: Permeability of compound at pH 7.4 at 200 uM measured after 5 hrs by PAMPA assay

Papp at 5 h, 200 µM: 10.5 ×10⁻⁶ cm/s
SMILES: CCC([Se]c1ccc2ccccc2c1)c1nc(N)nc(N2CCN(C)CC2)n1 (stereo unspecified)
